Literature values in PubChem BioAssay AID1259409 (Chemical Carcinogenesis Research Information System (CCRIS), 2018).

Tested on: rodent chemically induced tumor inhibition, incidence and multiplicity
Experiment: CCRIS tumor inhibitor studies
Conditions: Dose [Inhibitor]: 0

CCCCc1cccs1
tumour outcome (control, treated, inhibition, significance) (Carcinogen: BENZO[A]PYRENE, 50-32-8, 45 UMOL IN 0.2 ML COTTONSEED OIL 3/WK FOR 4 WK BEGINNING 1 DAY PRIOR TO FIRST CARCINOGEN DOSE AND TERMINATING 1 DAY A, Route [Inhibitor]: GAVAGE, Species: MOUSE, Strain/Sex: STRAIN-A/FEMALE, Target Tissue: Type of Lesion: FORESTOMACH: TUMOR, Dose [Carcinogen]: 1 MG 2/WK FOR 4 WK, Promoter: NONE USED): 14/17 (82%), 9/18 (50%), 39%, p<0.05 | tumour outcome (control, treated, inhibition, significance) (Carcinogen: BENZO[A]PYRENE, 50-32-8, 45 UMOL IN 0.2 ML COTTONSEED OIL 3/WK FOR 4 WK BEGINNING 1 DAY PRIOR TO FIRST CARCINOGEN DOSE AND TERMINATING 1 DAY A, Route [Inhibitor]: GAVAGE, Species: MOUSE, Strain/Sex: STRAIN-A/FEMALE, Target Tissue: Type of Lesion: LUNG: TUMOR, Dose [Carcinogen]: 1 MG 2/WK FOR 4 WK, Promoter: NONE USED): 17/17 (100%), 18/18 (100%), 0%, not significant | tumour outcome (control, treated, inhibition, significance) (Carcinogen: BENZO[A]PYRENE, 50-32-8, 90 UMOL IN 0.2 ML COTTONSEED OIL 3/WK FOR 4 WK BEGINNING 1 DAY PRIOR TO FIRST CARCINOGEN DOSE AND TERMINATING 1 DAY A, Route [Inhibitor]: GAVAGE, Species: MOUSE, Strain/Sex: STRAIN-A/FEMALE, Target Tissue: Type of Lesion: FORESTOMACH: TUMOR, Dose [Carcinogen]: 1 MG 2/WK FOR 4 WK, Promoter: NONE USED): 14/17 (82%), 9/13 (69%), 16%, not significant | tumour outcome (control, treated, inhibition, significance) (Carcinogen: BENZO[A]PYRENE, 50-32-8, 90 UMOL IN 0.2 ML COTTONSEED OIL 3/WK FOR 4 WK BEGINNING 1 DAY PRIOR TO FIRST CARCINOGEN DOSE AND TERMINATING 1 DAY A, Route [Inhibitor]: GAVAGE, Species: MOUSE, Strain/Sex: STRAIN-A/FEMALE, Target Tissue: Type of Lesion: LUNG: TUMOR, Dose [Carcinogen]: 1 MG 2/WK FOR 4 WK, Promoter: NONE USED): 17/17 (100%), 13/13 (100%), 0%, not significant

CC(C)[C@H]1C=C[C@H](O)CC1
tumour outcome (control, treated, inhibition, significance) (Carcinogen: 7,12-DIMETHYLBENZ[A]ANTHRACENE, 57-97-6, 12 NMOL PER REPEATED APPLICATION FOR 20 WK (STUDY DURATION: 20 WK), Route [Inhibitor]: DERMAL, Species: MOUSE, Strain/Sex: CD-1/FEMALE, Target Tissue: Type of Lesion: SKIN: TUMOR, Dose [Carcinogen]: 100 UG ONCE, Promoter: OKADAIC ACID, 78111-17-8): 87%, 53%, 39%, not calculated

O=CC(O)C(O)C(O)CO (stereo not drawn)
tumour outcome (control, treated, inhibition, significance) (Carcinogen: 1,2-DIMETHYLHYDRAZINE, 540-73-8, 10% IN FIBER-FREE DIET FOR 24 WK BEGINNING POST CARCINOGEN TREATMENT (STUDY DURATION: 32 WK), Route [Inhibitor]: ORAL, Species: RAT, Strain/Sex: SPRAGUE-DAWLEY/MALE, Target Tissue: Type of Lesion: COLON: ADENOCARCINOMA, Dose [Carcinogen]: 12 MG/KG BW 1/WK FOR 8 WK, Promoter: NONE USED): 73%, 53%, 27%, p=0.05

S=C=S
tumour outcome (control, treated, inhibition, significance) (Carcinogen: 1,2-DIMETHYLHYDRAZINE, 540-73-8, 250 MG/KG BW IN CORN OIL ADMINISTERED 24 AND 2 HR PRIOR TO AND 24 HR POST EACH CARCINOGEN DOSE (STUDY DURATION: 8 MO), Route [Inhibitor]: GAVAGE, Species: RAT, Strain/Sex: BD6/MALE, Target Tissue: Type of Lesion: INTESTINE: TUMOR, Dose [Carcinogen]: 20 MG/KG BW 1/WK FOR 20 WK, Promoter: NONE USED): 100%, 0%, 100%, not calculated

NCCCCCC(=O)O
tumour outcome (control, treated, inhibition, significance) (Carcinogen: N-ETHYL-N-NITROSOUREA, 759-73-9, 1000 MG/L IN DRINKING WATER FOR 12 MO ADMINISTERED TO CARCINOGEN-TREATED MOTHERS (STUDY DURATION: 12 MO), Route [Inhibitor]: ORAL, Species: RAT, Strain/Sex: ALBINO/MALE, FEMALE, Target Tissue: Type of Lesion: PERIPHERAL NERVES: TUMOR, Dose [Carcinogen]: 75 MG/KG BW ADMINISTERED INTRAPERITONEALLY TO MOTHERS 21 D POST CONCEPTION, Promoter: NONE USED): 24/63 (38%), 7/33 (21%), 45%, not significant | tumour outcome (control, treated, inhibition, significance) (Carcinogen: N-ETHYL-N-NITROSOUREA, 759-73-9, 1000 MG/L IN DRINKING WATER FOR 12 MO ADMINISTERED TO OFFSPRING OF CARCINOGEN-TREATED MOTHERS (STUDY DURATION: 12 MO), Route [Inhibitor]: ORAL, Species: RAT, Strain/Sex: ALBINO/MALE, FEMALE, Target Tissue: Type of Lesion: BRAIN: TUMOR, Dose [Carcinogen]: 75 MG/KG BW ADMINISTERED INTRAPERITONEALLY TO MOTHERS 21 D POST CONCEPTION, Promoter: NONE USED): 53/63 (84%), 21/33 (64%), 24%, p<0.05 | tumour outcome (control, treated, inhibition, significance) (Carcinogen: N-ETHYL-N-NITROSOUREA, 759-73-9, 1000 MG/L IN DRINKING WATER FOR 12 MO ADMINISTERED TO OFFSPRING OF CARCINOGEN-TREATED MOTHERS (STUDY DURATION: 12 MO), Route [Inhibitor]: ORAL, Species: RAT, Strain/Sex: ALBINO/MALE, FEMALE, Target Tissue: Type of Lesion: KIDNEY: TUMOR, Dose [Carcinogen]: 75 MG/KG BW ADMINISTERED INTRAPERITONEALLY TO MOTHERS 21 D POST CONCEPTION, Promoter: NONE USED): 23/63 (37%), 7/33 (21%), 43%, not significant | tumour outcome (control, treated, inhibition, significance) (Carcinogen: N-ETHYL-N-NITROSOUREA, 759-73-9, 1000 MG/L IN DRINKING WATER FOR 12 MO ADMINISTERED TO OFFSPRING OF CARCINOGEN-TREATED MOTHERS (STUDY DURATION: 12 MO), Route [Inhibitor]: ORAL, Species: RAT, Strain/Sex: ALBINO/MALE, FEMALE, Target Tissue: Type of Lesion: SPINAL CHORD: TUMOR, Dose [Carcinogen]: 75 MG/KG BW ADMINISTERED INTRAPERITONEALLY TO MOTHERS 21 D POST CONCEPTION, Promoter: NONE USED): 17/63 (27%), 15/33 (45%), -67%, not significant

O=[Se](=O)(O)O
tumour outcome (control, treated, inhibition, significance) (Carcinogen: 7,12-DIMETHYLBENZ[A]ANTHRACENE, 57-97-6, 0.2 PPM IN DIET BEGINNING 3 D PRIOR TO CARCINOGEN DOSE AND CONTINUING FOR 8 MO (STUDY DURATION: 8 MO), Route [Inhibitor]: ORAL, Species: MOUSE, Strain/Sex: BALB/FEMALE, Target Tissue: Type of Lesion: MAMMARY GLAND: ADENOCARCINOMA, Dose [Carcinogen]: 1 MG/WK FOR 6 WK, Promoter: NONE USED): 12/31 (39%), 7/24 (29%), 26%, not calculated | tumour outcome (control, treated, inhibition, significance) (Carcinogen: 7,12-DIMETHYLBENZ[A]ANTHRACENE, 57-97-6, 2 PPM IN DIET BEGINNING 3 D PRIOR TO CARCINOGEN DOSE AND CONTINUING FOR 8 MO (STUDY DURATION: 8 MO), Route [Inhibitor]: ORAL, Species: MOUSE, Strain/Sex: BALB/FEMALE, Target Tissue: Type of Lesion: MAMMARY GLAND: ADENOCARCINOMA, Dose [Carcinogen]: 1 MG/WK FOR 6 WK, Promoter: NONE USED): 12/31 (39%), 2/23 (9%), 77%, p<0.08
